Source: US20240417410A1, “TRICYCLIC COMPOUNDS FOR THE TREATMENT OF CANCER” (Hoffmann-La Roche Inc., priority 2023, published 2024)

Experiments:
AGS cells (KRAS G12D) = assay: Cell viability assay (Cell Counting Kit-8, 3-day); format: cell-based, human; settings: Homo sapiens, 72 h, 72 hrs incubation
Summary of the method: (§1)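 72-hr compound treatment, 0.5% DMSO final; NCI-H358 seeded 5,000 cells/well, AGS and SW620 2,000 cells/well. Endpoint: CCK-8, 2-hr development, OD450 minus OD650.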

[1] = system: NCI-H358 cells (KRAS G12C); assay: Cell viability assay (Cell Counting Kit-8, 3-day); format: cell-based, human; settings: Homo sapiens, NCI-H358, 72 h, NCI-H358, 72 hrs incubation
Summary of the method: as §1

SW620 cells (KRAS G12V) = assay: Cell viability assay (Cell Counting Kit-8, 3-day); format: cell-based, human; settings: Homo sapiens, SW-620; SW620, 72 hrs incubation
Summary of the method: as §1

[2] = system: phosphorylation of ERK, KRAS G12D in AGS cells; assay: pERK inhibition assay; format: cell-based; settings: Homo sapiens, AGS, 4 h
Summary of the method: (§2)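 Phospho-ERK quantified by in-cell ELISA with TMB read-out at OD450 following 4 h compound exposure (final 0.5% DMSO). Cell lines were SW620 (KRAS G12V), AGS (G12D) and NCI-H358 (G12C), grown in RPMI-1640 with 10% FBS. A 4-parameter sigmoidal model gave the IC50.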

[3] = system: phosphorylation of ERK, KRAS G12V in SW620; assay: pERK inhibition assay; format: cell-based; settings: Homo sapiens, SW-620, 4 h, SW620 cells
Summary of the method: as §2

[4] = system: phosphorylation of ERK, KRAS G12C in NCI-H358 cells; assay: pERK inhibition assay; format: cell-based; settings: Homo sapiens, NCI-H358, 4 h
Summary of the method: as §2

KRAS G12C-BRAF complex = KRAS G12C-BRAF complex (Homo sapiens (Human), UniProt P01116+P62937, G12C); assay: KRAS-BRAF with CYPA (500 nM) interaction assay (TR-FRET, Example 136); format: biochemical; settings: KRAS G12C-BRAF disruption
Sequence of KRAS G12C-BRAF complex (P01116-2 other isoform, or with tags, fused parts or gaps G12C): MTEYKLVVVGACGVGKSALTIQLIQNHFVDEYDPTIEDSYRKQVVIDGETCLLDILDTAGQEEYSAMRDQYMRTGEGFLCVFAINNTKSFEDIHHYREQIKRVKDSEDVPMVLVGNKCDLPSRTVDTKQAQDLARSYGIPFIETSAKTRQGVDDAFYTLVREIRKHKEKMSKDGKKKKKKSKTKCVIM
Sequence of KRAS G12C-BRAF complex (P62937 whole entry): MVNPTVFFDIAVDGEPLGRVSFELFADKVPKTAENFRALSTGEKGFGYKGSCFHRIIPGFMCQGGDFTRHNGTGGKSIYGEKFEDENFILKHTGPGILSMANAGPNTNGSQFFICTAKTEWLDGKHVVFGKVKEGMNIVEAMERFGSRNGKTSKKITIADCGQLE

SMILES | IC50 (AGS cells (KRAS G12D)) [nM] | IC50 [1] [nM] | IC50 (SW620 cells (KRAS G12V)) [nM] | IC50 [2] [nM] | IC50 [3] [nM] | IC50 [4] [nM] | IC50 (KRAS G12C-BRAF complex) [nM]
CO[C@@H](C)c1ncc(N2CCN3CCOC[C@@H]3C2)cc1-c1c2c3cc(cc4c3n1CCC4)-c1csc(n1)C[C@H](NC(=O)[C@H]1C[C@@H]1C)C(=O)N1CCC[C@H](N1)C(=O)OCC(C)(C)C2 (atropisomer, axis not shown; (M)) [Example 25, (1S,2S)-N-[(7S,13S)-(20M)-20-[5-[(9αS)-3,4,6,7,9,9a-hexahydro-1H-pyrazino[2,1-c][1,4]oxazin-8-yl]-2-[(1S)-1-methoxyethyl]-3-pyridyl]-17,17-dimethyl-8,14-dioxo-15-oxa-4-thia-9,21,30,31-tetrazahexacyclo[23.3.1.1^2,5.1^9,13.0^19,27.0^21,26]hentriaconta-1 (28),2,5 (31),19,25 (29),26-hexaen-7-yl]-2-methyl-cyclopropanecarboxamide] | 32.6 | 6.7 | 1.8 | 11.3 | 0.8 | 1 | 32.6
CO[C@@H](C)c1ncc(N2CCN(C)CC2)cc1-c1c2c3cc(cc4c3n1CCC4)-c1csc(n1)C[C@H](NC(=O)[C@H]1C[C@@H]1c1ccccn1)C(=O)N1CCC[C@H](N1)C(=O)OCC(C)(C)C2 (atropisomer, axis not shown; (M)) [Example 30, (1S,2S)-N-[(7S,13S)-(20M)-20-[2-[(1S)-1-methoxyethyl]-5-(4-methylpiperazin-1-yl)-3-pyridyl]-17,17-dimethyl-8,14-dioxo-15-oxa-4-thia-9,21,30,31-tetrazahexacyclo[23.3.1.1^2,5.1^9,13.0^19,27.0^21,26]hentriaconta-1 (28),2,5 (31),19,25 (29),26-hexaen-7-yl]-2-(2-pyridyl)cyclopropanecarboxamide] | 23.4 | 4.9 | 1.3 | 7.3 | < 0.6 | 1.3 | 17.2
CO[C@@H](C)c1ncc(N2CCN(C)CC2)cc1-c1c2c3cc(cc4c3n1CCC4)-c1csc(n1)C[C@H](NC(=O)[C@H]1C[C@H]1C)C(=O)N1CCC[C@H](N1)C(=O)OCC(C)(C)C2 (atropisomer, axis not shown; (M)) [Example 33, (1S,2R)-N-[(7S,13S)-(20M)-20-[2-[(1S)-1-methoxyethyl]-5-(4-methylpiperazin-1-yl)-3-pyridyl]-17,17-dimethyl-8,14-dioxo-15-oxa-4-thia-9,21,30,31-tetrazahexacyclo[23.3.1.1^2,5.1^9,13.0^19,27.0^21,26]hentriaconta-1 (28),2,5 (31),19,25 (29),26-hexaen-7-yl]-2-methyl-cyclopropanecarboxamide] | 100 | 32.3 | 7.4 | 23.1 | 2.7 | 8.5 | 19.5
CO[C@@H](C)c1ncc(N2CCN(C)CC2)cc1-c1c2c3cc(cc4c3n1CCO4)-c1csc(n1)C[C@H](NC(=O)[C@H]1C[C@@H]1C(F)F)C(=O)N1CCC[C@H](N1)C(=O)OCC(C)(C)C2 (atropisomer, axis not shown; (M)) [Example 34, (1S,2S)-2-(difluoromethyl)-N-[(7S,13S)-(20M)-20-[2-[(1S)-1-methoxyethyl]-5-(4-methylpiperazin-1-yl)-3-pyridyl]-17,17-dimethyl-8,14-dioxo-15,24-dioxa-4-thia-9,21,30,31-tetrazahexacyclo[23.3.1.1^2,5.1^9,13.0^19,27.0^21,26]hentriaconta-1 (28),2,5 (31), 19,25 (29),26-hexaen-7-yl]cyclopropanecarboxamide] | 12.4 | 4.7 | 1.1 | 4.6 | < 0.6 | < 0.6 | 31.8
CO[C@@H](C)c1ncc(N2CCN(C)CC2)cc1-c1c2c3cc(cc4c3n1CCO4)-c1csc(n1)C[C@H](NC(=O)[C@H]1[C@@H]3COC[C@@H]31)C(=O)N1CCC[C@H](N1)C(=O)OCC(C)(C)C2 (atropisomer, axis not shown; (M)) [Example 35, (1S,5R,6r)-N-[(7S,13S)-(20M)-20-[2-[(1S)-1-methoxyethyl]-5-(4-methylpiperazin-1-yl)-3-pyridyl]-17,17-dimethyl-8,14-dioxo-15,24-dioxa-4-thia-9,21,30,31-tetrazahexacyclo[23.3.1.1^2,5.1^9,13.0^19,27.0^21,26]hentriaconta-1 (28),2,5 (31), 19,25 (29),26-hexaen-7-yl]-3-oxabicyclo[3.1.0]hexane-6-carboxamide] | 13 | 4.3 | 1 | 4.7 | < 0.6 | 1 | 14.5
CO[C@@H](C)c1ncc(N2CCOCC2)cc1-c1c2c3cc(cc4c3n1CCC4)-c1csc(n1)C[C@H](NC(=O)[C@@H]1C[C@H]1C1CC1)C(=O)N1CCC[C@H](N1)C(=O)OCC(C)(C)C2 (atropisomer, axis not shown; (M)) [Example 37, (1R,2S)-2-cyclopropyl-N-[(7S,13S)-(20M)-20-[2-[(1S)-1-methoxyethyl]-5-morpholino-3-pyridyl]-17,17-dimethyl-8,14-dioxo-15-oxa-4-thia-9,21,30,31-tetrazahexacyclo[23.3.1.1^2,5.1^9,13.0^19,27.0^21,26]hentriaconta-1 (29),2,5 (31),19,25,27-hexaen-7-yl]cyclopropanecarboxamide] | 28.3 | 7.8 | 2.1 | 9.1 | 0.6 | 0.9 | 20.5
CO[C@@H](C)c1ncc(N2CCN3CCOC[C@@H]3C2)cc1-c1c2c3cc(cc4c3n1CCC4)-c1csc(n1)C[C@H](NC(=O)[C@H]1[C@@H]3COC[C@@H]31)C(=O)N1CCC[C@H](N1)C(=O)OCC(C)(C)C2 (atropisomer, axis not shown; (M)) [Example 40, (1S,5R,6r)-N-[(7S,13S)-(20M)-20-[5-[(9αS)-3,4,6,7,9,9a-hexahydro-1H-pyrazino[2,1-c][1,4]oxazin-8-yl]-2-[(1S)-1-methoxyethyl]-3-pyridyl]-17,17-dimethyl-8,14-dioxo-15-oxa-4-thia-9,21,30,31-tetrazahexacyclo[23.3.1.1^2,5.1^9,13.0^19,27.0^21,26]hentriaconta-1 (28),2,5 (31),19,25 (29),26-hexaen-7-yl]-3-oxabicyclo[3.1.0]hexane-6-carboxamide] | 11.8 | 3 | 0.8 | 5.6 | 0.4 | 0.6 | 13
CO[C@@H](C)c1ncc(N2CCN3CCOC[C@@H]3C2)cc1-c1c2c3cc(cc4c3n1CCC4)-c1csc(n1)C[C@H](NC(=O)[C@H]1C[C@@H]1C(F)F)C(=O)N1CCC[C@H](N1)C(=O)OCC(C)(C)C2 (atropisomer, axis not shown; (M)) [Example 41, (1S,2S)-N-[(7S,13S)-(20M)-20-[5-[(9αS)-3,4,6,7,9,9a-hexahydro-1H-pyrazino[2,1-c][1,4]oxazin-8-yl]-2-[(1S)-1-methoxyethyl]-3-pyridyl]-17,17-dimethyl-8,14-dioxo-15-oxa-4-thia-9,21,30,31-tetrazahexacyclo[23.3.1.1^2,5.1^9,13.0^19,27.0^21,26]hentriaconta-1 (28),2,5 (31),19,25 (29),26-hexaen-7-yl]-2-(difluoromethyl)cyclopropanecarboxamide] | 14 | 3.6 | 0.9 | 4.8 | 0.4 | 0.4 | 23.8
